Source: patent US20160016958A1, “Method of Labeling Flumazenil with F-18 and Separating and Purifying F-18-Flumazenil” (Institute of Nuclear Energy Research, Atomic Energy …, priority 2014, published 2016)

Assay: lipophilicity test, octanol/PBS partition with gamma counter
Assay type: physicochemical

With `CCOC(=O)c1ncn2c1CN(C)C(=O)c1cc([18F])ccc1-2` [F-18-flumazenil] the “log P value” was 1.49±0.12.
